Reference: ChEMBL document CHEMBL1201862, “PubChem BioAssay data set” (2004)
Each block holds one compound with its values, some of them ahead of it. Calls of active or inactive are those of the source.

Key:
Beta-galactosidase = Beta-galactosidase (Escherichia coli, UniProt Q8VNN2); experiment: beta-galactosidase enzyme inhibitors and activators, dose response, artefact control for CCR6 antagonist project, biochemical, E. coli enzyme, set 3 (AID 504712); format: functional
[1] = Luminescence Cell-Based Dose Retest to Confirm Inhibitors of Cancer Stem Cells. [Related pubchem assays (depositor defined):AID2717, AID2721]; format: functional; conditions: Homo sapiens
[2] = target: Voltage-dependent T-type calcium channel subunit alpha-1H (Homo sapiens, UniProt O95180); format: functional;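 further: channel activity triggered by adding a high calcium stimulation buffer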
Voltage-dependent T-type calcium channel subunit alpha-1H, sequence (O95180 whole entry): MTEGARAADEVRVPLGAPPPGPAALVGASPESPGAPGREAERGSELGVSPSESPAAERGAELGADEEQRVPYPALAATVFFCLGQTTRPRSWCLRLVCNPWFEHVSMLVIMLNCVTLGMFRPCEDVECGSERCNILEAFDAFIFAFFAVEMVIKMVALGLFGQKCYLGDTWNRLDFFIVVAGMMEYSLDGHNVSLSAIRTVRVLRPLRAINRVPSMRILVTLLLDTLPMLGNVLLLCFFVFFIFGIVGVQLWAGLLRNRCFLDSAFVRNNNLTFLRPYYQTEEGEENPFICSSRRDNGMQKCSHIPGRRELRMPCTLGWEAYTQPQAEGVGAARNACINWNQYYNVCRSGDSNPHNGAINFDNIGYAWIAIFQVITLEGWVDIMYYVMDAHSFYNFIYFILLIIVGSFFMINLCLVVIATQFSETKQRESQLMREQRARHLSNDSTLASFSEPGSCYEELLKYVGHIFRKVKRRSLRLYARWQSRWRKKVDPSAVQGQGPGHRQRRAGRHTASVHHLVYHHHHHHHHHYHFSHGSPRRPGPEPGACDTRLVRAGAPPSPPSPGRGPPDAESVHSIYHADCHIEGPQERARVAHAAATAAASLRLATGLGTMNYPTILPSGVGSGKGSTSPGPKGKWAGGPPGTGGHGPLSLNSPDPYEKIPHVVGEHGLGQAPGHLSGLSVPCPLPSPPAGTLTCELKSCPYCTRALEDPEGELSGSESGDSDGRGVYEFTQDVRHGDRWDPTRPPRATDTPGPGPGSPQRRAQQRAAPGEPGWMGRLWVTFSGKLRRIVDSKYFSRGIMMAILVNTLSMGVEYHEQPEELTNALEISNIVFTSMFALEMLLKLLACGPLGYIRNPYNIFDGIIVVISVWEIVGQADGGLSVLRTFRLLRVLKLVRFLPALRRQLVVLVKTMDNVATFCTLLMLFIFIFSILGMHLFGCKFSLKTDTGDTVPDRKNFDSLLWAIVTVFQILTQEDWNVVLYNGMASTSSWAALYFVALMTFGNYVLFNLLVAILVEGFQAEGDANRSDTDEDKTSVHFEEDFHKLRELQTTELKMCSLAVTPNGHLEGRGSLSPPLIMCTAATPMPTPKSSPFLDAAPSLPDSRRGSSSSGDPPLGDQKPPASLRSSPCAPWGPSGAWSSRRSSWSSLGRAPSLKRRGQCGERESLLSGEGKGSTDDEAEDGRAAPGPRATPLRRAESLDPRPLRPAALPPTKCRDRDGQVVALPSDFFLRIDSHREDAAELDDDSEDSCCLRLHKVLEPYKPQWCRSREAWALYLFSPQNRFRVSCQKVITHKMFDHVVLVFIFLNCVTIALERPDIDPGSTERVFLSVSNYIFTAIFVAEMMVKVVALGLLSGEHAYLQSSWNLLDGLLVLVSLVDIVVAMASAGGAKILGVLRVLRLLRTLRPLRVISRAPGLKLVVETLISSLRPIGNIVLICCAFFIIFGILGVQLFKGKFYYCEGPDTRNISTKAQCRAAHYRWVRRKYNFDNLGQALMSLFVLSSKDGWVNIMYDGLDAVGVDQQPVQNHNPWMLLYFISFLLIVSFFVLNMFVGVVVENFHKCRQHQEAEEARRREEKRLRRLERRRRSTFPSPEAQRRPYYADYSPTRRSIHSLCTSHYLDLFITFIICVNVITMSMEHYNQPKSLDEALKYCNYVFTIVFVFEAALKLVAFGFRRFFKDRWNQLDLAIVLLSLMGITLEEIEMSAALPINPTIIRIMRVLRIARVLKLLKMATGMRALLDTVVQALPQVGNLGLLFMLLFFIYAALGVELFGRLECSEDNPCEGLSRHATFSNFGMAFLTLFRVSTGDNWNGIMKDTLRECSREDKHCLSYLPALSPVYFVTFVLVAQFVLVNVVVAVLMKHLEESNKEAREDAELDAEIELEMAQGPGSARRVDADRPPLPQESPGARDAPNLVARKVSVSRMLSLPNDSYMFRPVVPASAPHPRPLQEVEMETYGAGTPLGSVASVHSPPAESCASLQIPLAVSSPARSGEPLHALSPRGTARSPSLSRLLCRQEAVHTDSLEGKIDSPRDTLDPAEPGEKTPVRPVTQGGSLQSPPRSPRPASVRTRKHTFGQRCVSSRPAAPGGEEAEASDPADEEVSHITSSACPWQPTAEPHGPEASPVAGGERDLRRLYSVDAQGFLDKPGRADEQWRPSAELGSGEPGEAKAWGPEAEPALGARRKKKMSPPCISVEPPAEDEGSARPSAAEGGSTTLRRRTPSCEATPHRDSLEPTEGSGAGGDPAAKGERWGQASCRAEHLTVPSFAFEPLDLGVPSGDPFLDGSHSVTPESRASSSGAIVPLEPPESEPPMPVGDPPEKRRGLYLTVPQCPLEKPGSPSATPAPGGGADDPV

Cytochrome P450 2C9 = Cytochrome P450 2C9 (Homo sapiens, UniProt P11712); conditions: Potency
Cytochrome P450 2C9, sequence (P11712 whole entry): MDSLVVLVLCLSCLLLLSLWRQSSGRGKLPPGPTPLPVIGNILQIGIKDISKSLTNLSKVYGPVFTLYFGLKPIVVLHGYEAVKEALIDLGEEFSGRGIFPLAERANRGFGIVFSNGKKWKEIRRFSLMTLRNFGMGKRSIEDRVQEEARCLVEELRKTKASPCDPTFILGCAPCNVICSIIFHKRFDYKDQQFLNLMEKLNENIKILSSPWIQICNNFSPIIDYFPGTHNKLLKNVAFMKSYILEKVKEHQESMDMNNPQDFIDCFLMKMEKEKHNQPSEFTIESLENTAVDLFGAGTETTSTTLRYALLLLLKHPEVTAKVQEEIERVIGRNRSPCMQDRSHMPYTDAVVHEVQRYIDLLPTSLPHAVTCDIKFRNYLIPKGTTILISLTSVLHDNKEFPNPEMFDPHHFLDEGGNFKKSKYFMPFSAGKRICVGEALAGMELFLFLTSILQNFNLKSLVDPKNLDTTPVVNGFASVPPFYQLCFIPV

Beta-galactosidase, sequence (Q8VNN2 whole entry): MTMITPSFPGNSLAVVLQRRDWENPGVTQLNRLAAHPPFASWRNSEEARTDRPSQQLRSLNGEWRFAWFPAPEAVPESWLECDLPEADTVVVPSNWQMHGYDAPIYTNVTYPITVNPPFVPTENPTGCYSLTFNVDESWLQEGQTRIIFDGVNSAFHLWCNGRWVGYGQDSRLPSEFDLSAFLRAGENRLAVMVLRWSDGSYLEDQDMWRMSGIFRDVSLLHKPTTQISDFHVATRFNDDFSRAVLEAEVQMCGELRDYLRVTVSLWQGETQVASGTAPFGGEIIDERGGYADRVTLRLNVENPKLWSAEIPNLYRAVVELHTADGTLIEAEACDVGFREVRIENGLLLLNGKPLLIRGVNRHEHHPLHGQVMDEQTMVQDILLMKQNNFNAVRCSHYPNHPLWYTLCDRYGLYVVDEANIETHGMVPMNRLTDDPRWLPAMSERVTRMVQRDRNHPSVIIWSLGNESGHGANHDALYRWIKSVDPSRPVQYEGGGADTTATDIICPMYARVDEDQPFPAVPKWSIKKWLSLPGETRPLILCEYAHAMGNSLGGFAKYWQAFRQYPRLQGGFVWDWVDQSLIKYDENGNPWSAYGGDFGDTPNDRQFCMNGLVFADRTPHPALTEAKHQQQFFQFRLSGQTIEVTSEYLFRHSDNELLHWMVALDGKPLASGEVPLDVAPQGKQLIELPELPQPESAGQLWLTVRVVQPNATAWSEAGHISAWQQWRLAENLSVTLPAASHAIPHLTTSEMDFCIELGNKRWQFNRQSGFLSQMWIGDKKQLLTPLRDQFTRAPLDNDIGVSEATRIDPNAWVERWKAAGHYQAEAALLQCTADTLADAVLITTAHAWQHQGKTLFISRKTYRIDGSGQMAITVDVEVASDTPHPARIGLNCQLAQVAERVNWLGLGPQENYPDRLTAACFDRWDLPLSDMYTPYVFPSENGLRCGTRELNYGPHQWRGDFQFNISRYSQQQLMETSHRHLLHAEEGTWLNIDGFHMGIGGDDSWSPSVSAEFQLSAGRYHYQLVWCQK

Structure (SMILES): Cc1ccc(C(NC(=O)C(C)C)c2cc([N+](=O)[O-])c3cccnc3c2O)cc1 (centres undefined)
IC50 (Beta-galactosidase): > 66.6 µM (inactive) | AC50 [1]: 1.02 µM (active)

EC50 [2]: 12.9 µM (active)
Structure (SMILES): CCC(=O)N1CCN(c2ccccc2NC(=O)Cc2ccccc2)CC1

AC50 (Cytochrome P450 2C9): 31.6 µM (inconclusive)
Structure (SMILES): COc1ccc(-c2oc3cc(OC)c(OC(C)=O)c(OC)c3c(=O)c2OC)cc1OC(C)=O
